Measurements: patent US11976083B2, “Inhibitors of peptidylarginine deiminases” (Gilead Sciences, Inc., priority 2020, dated 2024)

The molecules below were run against T1, human PAD4 (Homo sapiens, UniProt Q9UM07) (assay: In vitro PAD4 BAEE biochemical assay). Settings: BAEE substrate 3 mM, 5 nM PAD4, 2 mM calcium chloride; geometric mean of multiple experiments.
T1 construct: human PAD4 (NM_012387), A2-P663, was PCR amplified; His-SUMO (N, cleaved yes); made in house; host or cells: E. coli BL21(DE3)
T1 sequence (Q9UM07 2-663): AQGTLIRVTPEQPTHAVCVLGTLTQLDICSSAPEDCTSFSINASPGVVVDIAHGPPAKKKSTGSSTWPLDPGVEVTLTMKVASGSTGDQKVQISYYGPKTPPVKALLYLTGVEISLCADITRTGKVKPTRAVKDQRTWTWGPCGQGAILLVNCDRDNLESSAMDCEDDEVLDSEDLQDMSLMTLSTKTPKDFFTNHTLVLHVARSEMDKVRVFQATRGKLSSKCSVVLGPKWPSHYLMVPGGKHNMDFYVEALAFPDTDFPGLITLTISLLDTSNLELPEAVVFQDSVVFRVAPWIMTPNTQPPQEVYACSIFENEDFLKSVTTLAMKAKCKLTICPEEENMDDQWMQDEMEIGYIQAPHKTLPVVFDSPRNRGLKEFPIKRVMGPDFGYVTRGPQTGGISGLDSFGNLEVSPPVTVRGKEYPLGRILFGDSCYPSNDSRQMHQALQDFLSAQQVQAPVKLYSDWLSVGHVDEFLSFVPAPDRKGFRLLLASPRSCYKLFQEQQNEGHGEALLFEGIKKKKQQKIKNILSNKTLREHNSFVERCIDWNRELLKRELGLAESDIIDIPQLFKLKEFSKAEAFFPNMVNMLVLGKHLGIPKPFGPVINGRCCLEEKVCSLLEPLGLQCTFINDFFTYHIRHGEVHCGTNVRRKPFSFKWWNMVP
Procedure, shortened: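 Recombinant human PAD4 (5 nM final) with 2 mM CaCl2 was preincubated with compound 30 min at 25 °C in MOPS buffer pH 7.6, then reacted with 3 mM BAEE for 2 h at 25 °C. After EDTA stop, released ammonia was detected by o-phthalaldehyde/DTT fluorescence (ex 405/em 535 nm); IC50 from four-parameter fit, geometric mean.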

| IC50 | Structure (SMILES) |
| --- | --- |
| 0.024 µM | COc1cc(C(=O)N2CCC[C@@H](N)C2)cc2nc(-c3cc4ccc5nc4n3CCCCCCCCC(=O)N3CCC[C@H]53)n(C)c12 [Example 107, (2~{R})-17-[5-[(3~{R})-3-aminopiperidine-1-carbonyl]-7-methoxy-1-methyl-benzimidazol-2-yl]-6,16,22-triazatetracyclo[14.5.2.0^{2,6}.0^{19,23}] tricosa-1(22),17,19(23),20-tetraen-7-one] |
| 4.96 µM | COc1cc(C(=O)N2CCC[C@@H](N)C2)cc2nc(-c3cc4ccc5nc4n3CCCCCCC(=O)Nc3ccncc3-5)n(C)c12 [Example 45, 17-[5-[(3~{R})-3-aminopiperidine-1-carbonyl]-7-methoxy-1-methyl-benzimidazol-2-yl]-4,8,16,22-tetrazatetracyclo[14.5.2.0^{2,7}.0^{19,23}] tricosa-1(22),2,4,6,17,19(23),20-heptaen-9-one] |
| 0.032 µM | COc1cc(C(=O)N2C[C@H](N)[C@@H]3CC[C@H]2C3)cc2nc(-c3cc4ccc5nc4n3CCCCCc3ccccc3C(=O)N[C@@H]5C)n(C)c12 [Example 439, (2˜{R})-17-[5-[(1˜{S},4˜{R},5˜{R})-4-amino-2-azabicyclo[3.2.1]octane-2-carbonyl]-7-methoxy-1-methyl-benzimidazol-2-yl]-2-methyl-3,16,22-triazatetracyclo[14.5.2.0^{5,10}.0^{19,23}]tricosa-1(22),5(10),6,8,17,19(23),20-heptaen-4-one] |
| 0.026 µM | C[C@H]1NC(=O)c2ccc(Cl)nc2CC[C@H]2C[C@@H]2Cn2c(-c3nc4cc(C(=O)N5C[C@H](N)[C@@H]6CC[C@H]5C6)cc(F)c4n3C3CC3)cc3ccc1nc32 [Example 878, (3~{S},5~{S},16~{R})-22-[5-[(1~{S},4~{R},5~{R})-4-amino-2-azabicyclo[3.2.1]octane-2-carbonyl]-1-cyclopropyl-7-fluoro-benzimidazol-2-yl]-10-chloro-16-methyl-1,9,15,24-tetrazapentacyclo [15.5.2.0^{3,5}.0^ {8,13}.0^{20,23}]tetracosa-8(13),9,11,17(24),18,20(23), 21-heptaen-14-one] |
| 3.35 µM | COc1cc(C(=O)N2CC(N)CC(F)(F)C2)cc2nc(-c3cc4ccc5nc4n3CCCCCCC(C)(C)C(=O)N[C@@H]5C)n(C)c12 (stereo partly drawn) [Example 204, (11~{R})-17-[5-(5-amino-3,3-difluoro-piperidine-1-carbonyl)-7-methoxy-1-methyl-benzimidazol-2-yl]-8,8,11-trimethyl-1,10,19-triazatricyclo[10.5.2.0^{15,18}]nonadeca-12(19),13,15(18),16-tetraen-9-one] |
| 0.163 µM | COc1cc(C(=O)N2CC[C@@H](OC)[C@@H](N)C2)cc2nc(-c3cc4ccc5nc4n3C[C@H]3C[C@H]3CCC[C@](C)(C(F)(F)F)C(=O)N[C@@H]5C)n(C)c12 [Example 370, (3~{S),5~{R},9~{S},12~{R})-18-[5-[(3~{S},4~{R})-3-amino-4-methoxy-piperidine-1-carbonyl]-7-methoxy-1-methyl-benzimidazol-2-yl]-9,12-dimethyl-9-(trifluoromethyl)-1,11,20-triazatetracyclo[11.5.2.0^{3,5}.0^{16,19}] icosa-13(20),14,16(19),17-tetraen-10-one] |
| 0.06 µM | COc1cc(C(=O)N2CCC[C@@H](N)[C@H]2C)cc2nc(-c3cc4ccc5nc4n3CCCCCCC(C)(C)C(=O)N[C@@H]5C)n(C)c12 [Example 15, (11~{R})-17-[5-[(2~{R},3~{R})-3-amino-2-methyl-piperidine-1-carbonyl]-7-methoxy-1-methyl-benzimidazol-2-yl]-8,8,11-trimethyl-1,10,19-triazatricyclo[10.5.2.0^{15,18}]nonadeca-12(19),13,15(18),16-tetraen-9-one] |
| 0.049 µM | [2H]C([2H])([2H])O[C@@H]1CCN(C(=O)c2cc(F)c3c(c2)nc(-c2cc4ccc5nc4n2CC(F)(F)CCC[C@@H]2C[C@H]2C(=O)N[C@@H]5C)n3C2CC2)C[C@@H]1N [Example 641, (2~{R},5~{R},7~{R})-14-[5-[(3~{S},4~{R})-3-amino-4-(trideuteriomethoxy)piperidine-1-carbonyl]-1-cyclopropyl-7-fluoro-benzimidazol-2-yl]-11,11-difluoro-2-methyl-3,13,19-triazatetracyclo[11.5.2.0^ {5,7}.0^{16,20}]icosa-1(19),14,16(20),17-tetraen-4-one] |
| 0.061 µM | C[C@H]1NC(=O)c2c(C3CC3)cc(Cl)nc2CCCCCn2c(-c3nc4cc(C(=O)N5C[C@H](N)[C@@H]6CC[C@H]5C6)cc(F)c4n3C3CC3)cc3ccc1nc32 [Example 911, (2~{R})-17-[5-[(1~{S},4~{R}, 5~{R})-4-amino-2-azabicyclo[3.2.1]octane-2-carbonyl]-1-cyclopropyl-7-fluoro-benzimidazol-2-yl]-8-chloro-6-cyclopropyl-2-methyl-3,9,16,22-tetrazatetracyclo[14.5.2.0^ {5,10}.0^{19,23}]tricosa-1(22),5(10),6,8,17,19(23),20-heptaen-4-one] |
| 0.044 µM | COc1cc(C(=O)N2CC[C@@H](OC)[C@@H](N)C2)cc2nc(-c3cc4ccc5nc4n3CC(F)(F)CCC[C@@H]3C[C@H]3C(=O)N(CC(F)F)[C@@H]5C)n(C)c12 [Example 867, (2~{R},5~{R},7~{R})-14-[5-[(3~{S},4~{R})-3-amino-4-methoxy-piperidine-1-carbonyl]-7-methoxy-1-methyl-benzimidazol-2-yl]-3-(2,2-difluoroethyl)-11,11-difluoro-2-methyl-3,13,19-triazatetracyclo[11.5.2.0^ {5,7).0^{16,20}]icosa-1(19),14,16(20),17-tetraen-4-one] |
| 5.96 µM | COc1cc(C(=O)N[C@@H]2CNC[C@@H]2F)cc2nc(-c3cc4ccc5nc4n3CCCCCCC(C)(C)C(=O)N[C@@H]5C)n(C)c12 [Example 198, ~{N}-[(3~{R},4~{S})-4-fluoropyrrolidin-3-yl]-7-methoxy-1-methyl-2-[(11~{R})-8,8,11-trimethyl-9-oxo-1,10,19-triazatricyclo[10.5.2.0^{15,18}]nonadeca-12(19),13,15(18),16-tetraen-17-yl]benzimidazole-5-carboxamide] |
| 0.016 µM | COc1cc(C(=O)N2[C@H]3CC[C@@H]2[C@H](N)C3)cc2nc(-c3cc4ccc5nc4n3CCCCCC[C@@H](C)C(=O)N[C@@H]5C)c(C)n12 [Example 122, (8~{R},11~{R})-17-[7-[(1~{R},2~{R},4~{S})-2-amino-7-azabicyclo[2.2.1]heptane-7-carbonyl]-5-methoxy-3-methyl-imidazo[1,2-a]pyridin-2-yl]-8,11-dimethyl-1,10,19-triazatricyclo[10.5.2.0^{15,18}]nonadeca-12(19),13,15(18),16-tetraen-9-one] |
| 0.017 µM | C[C@H]1NC(=O)c2ccc(Cl)nc2CCCCCn2c(-c3nc4cc(C(=O)N5C[C@H](N)C[C@@H](F)C5)cc(F)c4n3C3CC3)cc3ccc1nc32 [Example 791, (2~{R})-17-[5-[(3~{R},5~{R})-3-amino-5-fluoro-piperidine-1-carbonyl]-1-cyclopropyl-7-fluoro-benzimidazol-2-yl]-8-chloro-2-methyl-3,9,16,22-tetrazatetracyclo[14.5.2.0^ {5,10}.0^{19,23}]tricosa-1(21),5(10),6,8,17,19,22-heptaen-4-one] |
| 0.047 µM | COc1cc(C(=O)N2[C@H]3CC[C@@H]2[C@H](N)C3)cc2nc(-c3cc4ccc5nc4n3CCCCCCC3(CCC3)C(=O)N[C@@H]5C)n(C)c12 [Example 278, (11~{R})-17-[5-[(1~{R},2~{R},4~{S})-2-amino-7-azabicyclo[2.2.1]heptane-7-carbonyl]-7-methoxy-1-methyl-benzimidazol-2-yl]-11-methyl-spiro[1,10,19-triazatricyclo[10.5.2.0^{15,18}]nonadeca-12(19),13,15(18),16-tetraene-8,1′-cyclobutane]-9-one] |
| 0.411 µM | COc1cc(C(=O)N2CC[C@H]3OCCN[C@H]3C2)cc2nc(-c3cc4ccc5nc4n3C[C@H]3C[C@H]3COCCC(=O)N[C@@H]5C)n(C)c12 (single isomer, unassigned) [Example 245, (3˜{S},5˜{R},12˜{R})-18-[5-[(4˜{a}˜{S},8˜{a}˜{R})-2,3,4,4˜{a},5,7,8,8˜{a}-octahydropyrido[4,3-b][1,4]oxazine-6-carbonyl]-7-methoxy-1-methyl-benzimidazol-2-yl]-12-methyl-7-oxa-1,11,20-triazatetracyclo[11.5.2.0^{3,5}.0^{16,19}]icosa-13(20),14,16(19),17-tetraen-10-one] |
| 0.044 µM | COc1cc(C(=O)N2CC[C@@H](OC)[C@@H](N)C2)cc2nc(-c3cc4ccc5nc4n3CCCCCc3cc(Cl)ncc3C(=O)N[C@@H]5C)n(C)c12 [Example 653, 17-[5-[(3~{S},4~{R})-3-amino-4-methoxy-piperidine-1-carbonyl]-7-methoxy-1-methyl-benzimidazol-2-yl]-8-chloro-2-methyl-3,7,16,22-tetrazatetracyclo[14.5.2.0^ {5,10}.0^{19,23}] tricosa-1(22),5,7,9,17,19(23), 20-heptaen-4-one] |
| 0.034 µM | COc1cc(C(=O)N2[C@H]3CC[C@@H]2[C@H](N)C3)cc2nc(-c3cc4ccc5nc4n3CCCCCCn3nccc3C(=O)N[C@@H]5C)c(C)n12 [Example 35, (2~{R})-17-[7-[(1~{R},2~{R},4~{S})-2-amino-7-azabicyclo[2.2.1]heptane-7-carbonyl]-5-methoxy-3-methyl-imidazo[1,2-a]pyridin-2-yl]-2-methyl-3,8,9,16,22-pentazatetracyclo[14.5.2.0^{5,9).0^{19,23}] tricosa-1(22),5,7,17,19(23),20-hexaen-4-one] |
| 0.063 µM | COc1cc(C(=O)N2CC[C@@H](OC)[C@@H](N)C2)cc2nc(-c3cc4ccc5nc4n3CCCCC[C@@H]3C[C@H]3C(=O)NC5(C)C)n(C)c12 [Example 782, (5˜{R},7˜{R})-14-[5-[(3˜{S},4˜{R})-3-amino-4-methoxy-piperidine-1-carbonyl]-7-methoxy-1-methyl-benzimidazol-2-yl]-2,2-dimethyl-3,13,19-triazatetracyclo[11.5.2.0^{5,7}.0^{16,20}]icosa-1(18),14,16,19-tetraen-4-one] |
